Among the data in patent US12049439B2 (OrsoBio, Inc., priority 2018, dated 2024) are EC50 values, retold here.

The subject of the test is PC-3 cells. As to the kind of experiment: PC-3 Oxygen Rate Consumption (OCR) Assay. The format is cell-based. Particulars: Homo sapiens, 0.05 h, medium with 2% FBS, OCR at 3-min post-injection normalized to % increase over DMSO-treated cells, concentration for half-maximal OCR increase, read-out: EC50-PC3-OCR-FBS-3min. The gist of the method:
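Oxygen consumption read on Seahorse XFe96: three basal measurements, then compound injection and 10 cycles over 30 min. EC50 defined as concentration giving half-maximal OCR rise, using 3-min post-injection values as % above DMSO controls, six replicates per treatment, in PC-3 cells in glucose/pyruvate medium.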
For `CS(=O)(=O)Nc1ccc(C(F)(F)F)cc1C(=O)NC12CC3CC(CC(C#N)(C3)C1)C2` [Example 175, N-((1R,5R)-3-cyanoadamantan-1-yl)-2-(methylsulfonamido)-5-(trifluoromethyl)benzamide], the half-maximal effective concentration (EC50) (usually the concentration giving half of the maximal effect) stood at 5.98 µM.

On to `CC(C)(C)S(=O)(=O)Nc1ccc(C(F)(F)F)cc1C(=O)NC12CC3CC(CC(C#N)(C3)C1)C2` [Example 176, N-((1R,5R)-3-cyanoadamantan-1-yl)-2-((1,1-dimethylethyl)sulfonamido)-5-(trifluoromethyl)benzamide], for which the EC50 turned out to be 1.7 µM.

Turning to `CN(C)S(=O)(=O)Nc1ccc(C(F)(F)F)cc1C(=O)NC12CC3CC(CC(C#N)(C3)C1)C2` [Example 177, N-((1R,5R)-3-cyanoadamantan-1-yl)-2-((N,N-dimethylsulfamoyl)amino)-5-(trifluoromethyl)benzamide], the EC50 was determined as 1.86 µM.

As to `N#CC12CCC(NC(=O)c3cc(C(F)(F)F)ccc3NS(=O)(=O)N3CCOCC3)(CC1)CC2` [Example 178, N-(4-cyanobicyclo[2.2.2]octan-1-yl)-2-(morpholine-4-sulfonamido)-5-(trifluoromethyl)benzamide], the EC50 worked out at 5.93 µM.

Regarding `N#CC12CCC(NC(=O)c3cc(C(F)(F)F)ccc3NS(=O)(=O)N3CCC3)(CC1)CC2` [Example 179, 2-(azetidine-1-sulfonamido)-N-(4-cyanobicyclo[2.2.2]octan-1-yl)-5-(trifluoromethyl)benzamide], the EC50 turned out to be 8.84 µM.

In the case of `CP(C)(=O)c1ccc(S(=O)(=O)Nc2cc(C(F)(F)F)ccc2C(=O)NC23CC4CC(CC(C#N)(C4)C2)C3)cc1` [Example 180], the concentration for a half-maximal effect (EC50) was at least 200 µM.

As to `CCP(=O)(CC)c1ccc(S(=O)(=O)Nc2cc(C(F)(F)F)ccc2C(=O)NC23CC4CC(CC(C#N)(C4)C2)C3)cc1` [Example 181], the EC50 came to 114 µM.

As to `COC1CN(S(=O)(=O)Nc2ccc(C(F)(F)F)cc2C(=O)NC23CCC(C#N)(CC2)CC3)C1` [Example 182, N-(4-cyanobicyclo[2.2.2]octan-1-yl)-2-((3-methoxyazetidine)-1-sulfonamido)-5-(trifluoromethyl)benzamide], the EC50 came to 13 µM.

Turning to `CS(=O)(=O)Nc1ccc(C(F)(F)F)cc1C(=O)NC12CCC(C(F)(F)F)(CC1)CC2` [Example 183, 2-(methylsulfonamido)-5-(trifluoromethyl)-N-(4-(trifluoromethyl)bicyclo[2.2.2]octan-1-yl)benzamide], the EC50 came to 0.824 µM.

`CS(=O)(=O)Nc1ccc(S(F)(F)(F)(F)F)cc1C(=O)NC1CC2CCC(C1)O2` (centres unmarked) [Example 184, N-(8-oxabicyclo[3.2.1]octan-3-yl)-2-(methylsulfonamido)-5-(pentafluoro-λ^6-sulfanyl)benzamide]: the EC50 is 48.1 µM.

Take `CS(=O)(=O)Nc1ccc(OC(F)(F)F)cc1C(=O)NC12CCC(C#N)(CC1)CC2` [Example 185, N-(4-cyanobicyclo[2.2.2]octan-1-yl)-2-(methylsulfonamido)-5-(trifluoromethoxy)benzamide]: the EC50 amounted to 32 µM.

For the compound `CC(C)(C)P(=O)(c1ccc(S(=O)(=O)Nc2cc(C(F)(F)F)ccc2C(=O)NC23CCC(C#N)(CC2)CC3)cc1)C(C)(C)C` [Example 186, N-(4-cyanobicyclo[2.2.2]octan-1-yl)-2-((4-(di-tert-butylphosphoryl)phenyl)sulfonamido)-4-(trifluoromethyl)benzamide], the EC50 came to 12.6 µM.

Take `CS(=O)(=O)Nc1ccc(C(F)(F)F)cc1C(=O)NC12C3C4C1C1C2C3C41C#N` [Example 187, N-((2r,3R,4r,5S)-4-cyanocuban-1-yl)-2-(methylsulfonamido)-5-(trifluoromethyl)benzamide]: the half-maximal effective concentration (EC50) worked out at 11.5 µM.

In the case of `CN(C)S(=O)(=O)Nc1cc(F)ccc1C(=O)NC12CC(C(F)(F)F)(C1)C2` [Example 188, 2-((N,N-dimethylsulfamoyl)amino)-4-fluoro-N-(3-(trifluoromethyl)bicyclo[1.1.1]pentan-1-yl)benzamide], the EC50 came out at 3.29 µM.

As to `CN(C)S(=O)(=O)Nc1ccc(C(F)(F)F)cc1C(=O)NC12CC(C(F)(F)F)(C1)C2` [Example 189, 2-((N,N-dimethylsulfamoyl)amino)-5-(trifluoromethyl)-N-(3-(trifluoromethyl)bicyclo[1.1.1]pentan-1-yl)benzamide], the EC50 was 0.511 µM.

On to `CN(C)S(=O)(=O)Nc1ccc(C(F)(F)F)cc1C(=O)NC12CCC(C#N)(CC1)CC2` [Example 190, N-(4-cyanobicyclo[2.2.2]octan-1-yl)-2-((N,N-dimethylsulfamoyl)amino)-5-(trifluoromethyl)benzamide], for which the EC50 is 4.15 µM.

For the compound `CC(C)(C)S(=O)(=O)Nc1ccc(C(F)(F)F)cc1C(=O)NC12CCC(C#N)(CC1)CC2` [Example 191, N-(4-cyanobicyclo[2.2.2]octan-1-yl)-2-((1,1-dimethylethyl)sulfonamido)-5-(trifluoromethyl)benzamide], the EC50 turned out to be 1.76 µM.

Consider `CC(C)(C)[S+]([O-])Nc1ccc(C(F)(F)F)cc1C(=O)NC12CC(C(F)(F)F)(C1)C2` (centres unmarked) [Example 192, 2-((tert-butylsulfinyl)amino)-5-(trifluoromethyl)-N-(3-(trifluoromethyl)bicyclo[1.1.1]pentan-1-yl)benzamide], for which the EC50 was 14.7 µM.

Consider `O=C(NC12CC(C(F)(F)F)(C1)C2)c1cc(C(F)(F)F)ccc1NS(=O)(=O)N1CCS(=O)(=O)CC1` [Example 193, 2-((1,1-dioxidothiomorpholine)-4-sulfonamido)-5-(trifluoromethyl)-N-(3-(trifluoromethyl)bicyclo[1.1.1]pentan-1-yl)benzamide], for which the EC50 came out at 9.95 µM.

`CS(=O)(=O)Nc1cc(Br)ccc1C(=O)NC12CCC(C#N)(CC1)CC2` [Example 194, 4-bromo-N-(4-cyanobicyclo[2.2.2]octan-1-yl)-2-(methylsulfonamido)benzamide]: the EC50 was at least 50 µM.

On to `CS(=O)(=O)Nc1ccc(C(F)(F)F)cc1C(=O)NC1CC2(CC(=O)C2)C1` [Example 195, 2-(methylsulfonamido)-N-(6-oxospiro[3.3]heptan-2-yl)-5-(trifluoromethyl)benzamide], for which the EC50 is 67.5 µM.

For `N#CC12CCC(NC(=O)c3cc(C(F)(F)F)ccc3NS(=O)(=O)Cc3ccccc3)(CC1)CC2` [Example 196, N-(4-cyanobicyclo[2.2.2]octan-1-yl)-2-((phenylmethyl)sulfonamido)-5-(trifluoromethyl)benzamide], the EC50 is 1.38 µM.

As to `O=C(NC12CCC(F)(CC1)CC2)c1cc(C(F)(F)F)ccc1NS(=O)(=O)Cc1ccccc1` [Example 197, N-(4-fluorobicyclo[2.2.2]octan-1-yl)-2-((phenylmethyl)sulfonamido)-5-(trifluoromethyl)benzamide], the EC50 worked out at 0.893 µM.

`CS(=O)(=O)Nc1cc(F)ccc1C(=O)NC12CCC(C#N)(CC1)CC2` [Example 198, N-(4-cyanobicyclo[2.2.2]octan-1-yl)-4-fluoro-2-(methylsulfonamido)benzamide]: the EC50 is at least 200 µM.

In the case of `CS(=O)(=O)Nc1cc(F)ccc1C(=O)NC12CCC(F)(CC1)CC2` [Example 199, 4-fluoro-N-(4-fluorobicyclo[2.2.2]octan-1-yl)-2-(methylsulfonamido)benzamide], the EC50 is at least 100 µM.

Consider `Cc1ncsc1CCS(=O)(=O)Nc1ccc(C(F)(F)F)cc1C(=O)NC12CCC(C#N)(CC1)CC2` [Example 200, N-(4-cyanobicyclo[2.2.2]octan-1-yl)-2-((2-(4-methylthiazol-5-yl)ethyl)sulfonamido)-5-(trifluoromethyl)benzamide], for which the concentration giving a half-maximal response (EC50) stood at 5.09 µM.
